What was measured:
[1] = cited from earlier work
[2] = Dissolution of the example 7 composition in media of different pH (Basket/100 RPM/900 ml); format: physicochemical; conditions: 0.1N HCl vs phosphate buffer pH 6.0 and pH 6.8
[3] = cited from earlier work; remark: listed apart in the source

CN1CCN(C2=Nc3cc(Cl)ccc3Nc3ccccc32)CC1 [Clozapine, 8-chloro-11-(4-methyl-1-piperazinyl)-5H-dibenzo[b,e][1,4]diazepine]
solubility in acidic pH ([1]; acidic pH): soluble in acidic pH
solubility in basic pH ([1]; basic pH): practically insoluble in basic pH
solubility in intestinal pH ([1]; intestinal pH): insoluble in intestinal pH
solubility in water ([1]; water): very slightly soluble in water
solubility behaviour concluded from dissolution data [2]: pH dependent solubility
dose that reaches systemic circulation unchanged ([3]; extensive first pass metabolism): 27-50%
plasma half-life, mean value ([3]; wide inter-individual variation): 6 ± 1.5 h

Source: patent publication US11504336B2, “Extended release pharmaceutical composition of clozapine” (INTAS PHARMACEUTICALS LTD., priority 2016, dated 2022)
